Holding throughout (assay type): cell-based, human
In one assay the test system is HCT116 cells. Kind of assay: β-gal positive foci in pCAROF-transfected MMR defective cells exposed to chemical mutagen. Particulars: 10 μM for 8 hours, 1,000 cells/plate, grown 10 days, triplicate. An excerpt:
To enhance the rate of genetic mutations and produce cells with altered genes, RNA expression, or polypeptides, the use of MMR deficiency and chemical mutagens is a powerful tool to generate such diversity. The advantages of using MMR defective cells is that the decrease of this activity renders cells more resistant to the toxic effects of such compounds yet allows for the increase in genetic and phenotypic alterations of a host organism or cell. […] Cells that are genetically defective for MMR such as but not limited to HCT116, DLD-1, etc. or cells such as those described in example 1 and 2 that are made MMR defective by ectopic expression of a dominant negative allele is covered under this invention. Briefly, MMR proficient and deficient cells are incubated with a range (1 nm to 1 mM) of chemical mutagens for 1 hour to 24 hours at 37 C at 5% CO2 in growth medium. After incubation is complete, chemical mutagens are washed from medium and cells are grown in the presence of hypoxanthine, aminopterin, and […] to score for HPRT mutant cells as previously described (Walker, V E et. al. Mutat Res. 17:371-388, 1999.) and known to those skilled in the art. […] After 14 days, the numbers of HAT-resistant colonies are determined by counting under the microscope. […] Cells were grown for 10 days and scored for β-gal activity using methods described in EXAMPLE 1. […]

For assay [1], the system named is HCT116 cells cotransfected with polyPNP and pC9MLH constructs. Kind of assay: MPD killing assay, MLH1 complementation. As to conditions: 300 μM. An excerpt:
The restoration of genetic stability and the subsequent imprint of an altered gene locus or loci is an important invention of this application for producing viable biological products, whereby altered biomolecules, cells or whole organisms with desired altered output traits are made genetically stable for long term use. To generate stable MMR defective cell lines that has or has not been exposed to chemical mutagens and selected for desired genetic changes, the introduction of a complementing MMR gene that can substitute for the mutated endogenous MMR gene locus is taught in this application. […] In this example, a mammalian expression vector is used that encodes for the functional MLH1 polypeptide (pC9MLH1) or an expression vector that encodes for a MLH1 cDNA with a premature stop codon (pC9MLHstop). These expression vectors contain a neomycin (neo) resistance gene that allows for selection of cells containing this vector. […] Cells were selected for 10 days in neo and Hyg and resistant clones were isolated and expanded. Cells were then cultured in the presence of MPD and counted for growth after 10 days. […]
For MPD killing assay, cells were plated at 2×10^4 cell/ml and 1 ml aliquots were plated in 24-well costar tissue culture dishes. […] Cells were grown for 10 days trypsinized and counted on hemocytometer using trypan blue exclusion. […]

For another assay, the system named is HCT116/polyPNP cells. Kind of assay: MPD killing assay. Particulars: 10 days. An excerpt:
(§1) The use of cells with defective MMR repair due to defects of endogenous genes such as but not limited to the HCT116, DLD-1, and HEC-1-A cells lines (ref. 12, 25 and Kondo, et. al. J Biochem 125:818-825, 1999) can be useful for altering the genetic structure of genes to produce commercially viable variant molecules such as novel anti-microbial agents, bioactive growth factors or hormones, altered antibody structures, etc. The utility and value of such a cell is that once an altered gene structure has been produced, the integrity of this gene alteration can be preserved in the cell's genome by making the cell genetically stable via the introduction of a functional complementing MMR gene. […] The polyPNP gene encodes for a non-functional PNP gene. When the poly-A tract is randomly altered by genetic alterations due to defective MMR, the tract is randomly altered, allowing for the production of a functional PNP gene and polypeptide. PNP converts the non-toxic 9-(β-D-2-deoxy-erythro-pento-furanosyl)-6-methyl-purine prodrug (referred to as MPD) substrate to the toxic 6-methyl purine analog (referred to as MP) (Sorscher, E J, et. al. Gene Therapy 1:233-238, 1994). The polyPNP gene was engineered to contain a hemaglutinin epitope tag at the C-terminus to facilitate the detection of the encoded polypeptide via western blot analysis using an anti-HA antibody. The polyPNP gene was cloned into the pCEP4 expression vector, which has a hygromycin resistance (Hyg) gene for selection. A homologous gene called PNP was also made in which an in-frame polyA tract is cloned into the N-terminus of the gene as a positive control for PNP activity. Briefly, the MMR defective HCT116 cell line and the MMR proficient HEK293 cell line were transfected with the polyPNP, the PNP expression vector, or an empty pCEP4 vector. Cells were then selected for Hyg resistance and clones were isolated. Expanded cells were grown in the presence of increasing amounts of MPD (0, 1, 10, 50, 100, 300 μM) for 10 days. After treatment period, cells were counted by hemocytometer and trypan blue exclusion.
(§2) Cells were transfected with PNP and/or MLH1 expression vectors using liposomes following the manufacturer's protocol (Gibco/BRL). Stably transfected cell lines were generated that express empty vector, PNP or polyPNP by transfection followed by hygromycin selection. For complementation experiments, HCT116 cells were transfected with PNP/MLH1, PNP/MLH1stop, polyPNP/MLH1 or polyPNP/MLH1 stop at a 1:1 ratio using 5 μg of each plasmid and cells were selected for hygromycin and neomycin resistance. After 10 days, drug-resistant colonies were observed and picked for analysis.
(§3) For MPD killing assay, cells were plated at 2×10^4 cell/ml and 1 ml aliquots were plated in 24-well costar tissue culture dishes. For killing assays, cells were plated in 0, 1, 10, 50, 100, and 300 μM MPD in triplicate. Cells were grown for 10 days trypsinized and counted on hemocytometer using trypan blue exclusion. Data are presented as a mean+/−SD for each study.

The subject of assay [2] is HEK293 cells expressing PNP. Briefly: MPD killing assay. As to conditions: 50-300 μM, 10 days.
Source text: as §1, §2, §3

Assay [3] relates to HCT116 cells expressing PNP. Kind of assay: MPD killing assay. Particulars: 50-300 μM, 10 days.
Source text: as §1, §2, §3

The next assay has as its system HEK293/polyPNP cells. Kind of assay: MPD killing assay. As to conditions: highest concentration (300 μM), 10 days.
Source text: as §1, §2, §3

The structures appear in SMILES notation.

As to `CCOS(C)(=O)=O` [EMS, ethyl methanesulfonate], the “number of β-gal positive foci” value in the assay on HCT116 cells is on record as 205+/−18 per dish.

For the molecule `Cc1ncnc2c1ncn2[C@H]1C[C@H](O)[C@@H](CO)O1` [MPD, 9-(β-D-2-deoxyerythropentofuranosyl)-6-methyl-purine], in assay [1] (cells expressing MLH1 (pC9MLH1) plus polyPNP), the “decrease in total cell growth compared to medium alone” value is listed as 2%. For the same molecule, the “reduction in cell growth compared to medium alone” value in assay [1] (cells transfected with MLHstop or empty vector and polyPNP) is listed as 35%. Moreover, the “decrease in cell numbers” value in the assay on HCT116/polyPNP cells (100 μM) is 20%; in the assay on HCT116/polyPNP cells (300 μM) it was 30%. Moreover, the growth suppression in assay [2] and in assay [3] was 100% each time. Moreover, the “decrease in cell growth (in words)” value with HEK293/polyPNP cells is reported as “no decrease in cell growth”.
